Like-named read-outs stand apart in the source and are kept apart here.
Legend:
Listeria monocytogenes = details: beef tissue briefly dipped in a 1% acid solution at 55° C.; cited from earlier work
E. coli O157:H7 = details: beef tissue briefly dipped in a 1% acid solution at 55° C.; cited from earlier work

SMILES: O=C(O)/C=C/C(=O)O [fumaric acid]
- reduction of Listeria monocytogenes (Listeria monocytogenes): much more effective than lactic or acetic acids
- reduction of E. coli O157:H7 (E. coli O157:H7): much more effective than lactic or acetic acids

SMILES: O=NO [Nitrite]
- % HONO (pH 2.6): 83.3%
- % NO2^− (pH 2.6): 16.7%
- % HONO (pH 2.8): 76.0%
- % NO2^− (pH 2.8): 24.0%
- % HONO (pH 3.0): 66.7%
- % NO2^− (pH 3.0): 33.3%
- % HONO (pH 3.3): 50.0%
- % NO2^− (pH 3.3): 50.0%
- % HONO (pH 3.5): 38.8%
- % NO2^− (pH 3.5): 61.2%
- % HONO (pH 4.0): 16.6%
- % NO2^− (pH 4.0): 63.4%

Reference: patent US20180055857A1, “TREATMENT OF ACNE VULGARIS WITH SEQUENTIAL TOPICAL FORMULATIONS COMPRISING ANTIMICROBIAL ORGANIC ACID ANIONS IN ALKALINE PHASE” (KANTIAN SCIENCES CORPORATION, priority 2015, published 2018)
